In patent US10065990B2, “Cyclic peptide compound, and preparation method, pharmaceutical composition and use thereof” (HANGZHOU GUANYU BIO-MEDICAL CO., LTD, priority 2013, dated 2018):

Tests used:
[1] = system: H1975 (non-small cell lung adenocarcinoma); assay: MTT cancer cell growth inhibition; type: cell-based; conditions: Homo sapiens, NCI-H1975, 72 h, MTT, 72 hours incubation, H1975 cells; read-out: GI50 H1975
Description: (§1) MTT assay principle is yellow MTT can penetrate membrane into the cell, succinic dehydrogenase of the mitochondria in living cells can make exogenous MTT reduction of insoluble in water of blue-violet acicular formazan for crystallization and deposition in the cell, crystallization can be dissolved dimethyl sulfoxide (DMSO) solution, detected its absorbance at 490 nm/570 nm wavelength by enzyme-linked immunosorbent assay, which can reflect the number of cells.
(§2) Using DMEM+10% FBS culture medium or using 1640+10% FBS culture, respectively.
(§3) a) Cells were seeded in 96-well plates with the inoculation of 1500/well, 190 μl/hole, 37° C., 5% of CO2 incubator overnight;
(§4) b) The next day each well was added 10 μl of different drugs. The final concentration of drug was 10^−5˜10^−10M, three parallel holes; 37° C., 5% CO2 culture incubator for 72 hours incubation;
(§5) c) Per well was added 20 μl 5 mg/ml of MTT, 37° C., 5% CO2 culture incubator for 4 hours incubation;
(§6) d) The supernatant was discarded. Each well was added 100 μl of DMSO and oscillation;
(§7) e) 570 nm readings. Calculate cell viability. GI50 calculation based on the results.

[2] = system: HCC827 (human non-small cell lung cancer cells); assay: MTT cancer cell growth inhibition; type: cell-based; conditions: Homo sapiens, HCC827, 72 h, MTT, 72 hours incubation, HCC827 cells; read-out: GI50 HCC827
Description: as §1, §2, §3, §4, §5, §6, §7

[3] = system: lncap (prostate cancer cells); assay: MTT cancer cell growth inhibition; type: cell-based; conditions: Homo sapiens, LNCaP, 72 h, MTT, 72 hours incubation; read-out: GI50 lnca
Description: as §1, §2, §3, §4, §5, §6, §7

[4] = system: MDA-MB-231 (breast cancer cells); assay: MTT cancer cell growth inhibition; type: cell-based; conditions: Homo sapiens, MDA-MB-231, 72 h, read-out: GI50 MDA-MB-231, MTT, 72 hours incubation, MDA-MB-231 cells
Description: as §1, §2, §3, §4, §5, §6, §7

[5] = system: Hela (human cervical cancer cells); assay: MTT cancer cell growth inhibition; type: cell-based; conditions: Homo sapiens, HeLa, 72 h, MTT, 72 hours incubation; read-out: GI50 Hela
Description: as §1, §2, §3, §4, §5, §6, §7

[6] = system: Bel-7402 (human hepatoma cells); assay: MTT cancer cell growth inhibition; type: cell-based; conditions: Homo sapiens, Bel-7402, 72 h, MTT, 72 hours incubation, Bel-7402 cells; read-out: GI50 Bel-7402
Description: as §1, §2, §3, §4, §5, §6, §7

[7] = system: KBM-5 (human chronic myelogenous leukemia); assay: MTT cancer cell growth inhibition; type: cell-based; conditions: Homo sapiens, KBM5, 72 h, MTT, 72 hours incubation, KBM-5 cells; read-out: GI50 KBM-5
Description: as §1, §2, §3, §4, §5, §6, §7

[8] = system: DU145 (human prostate cancer cells); assay: MTT cancer cell growth inhibition; type: cell-based; conditions: Homo sapiens, DU-145, 72 h, MTT, 72 hours incubation; read-out: GI50 Du1
Description: as §1, §2, §3, §4, §5, §6, §7

[9] = system: K562 (human leukemia cells); assay: MTT cancer cell growth inhibition; type: cell-based; conditions: Homo sapiens, K562, 72 h, MTT, 72 hours incubation, K562 cells; read-out: GI50 K562
Description: as §1, §2, §3, §4, §5, §6, §7

[10] = system: MCF-7 (human breast cancer cells); assay: MTT cancer cell growth inhibition; type: cell-based; conditions: Homo sapiens, MCF7, 72 h, 72 hours incubation, read-out: GI50 MCF
Description: as §1, §2, §3, §4, §5, §6, §7

[11] = system: N-87 (human gastric cancer cells); assay: MTT cancer cell growth inhibition; type: cell-based; conditions: Homo sapiens, 72 h, MTT, 72 hours incubation, N-87 cells; read-out: GI50 N-87
Description: as §1, §2, §3, §4, §5, §6, §7

[12] = system: BGC-823 (human gastric cancer cells); assay: MTT cancer cell growth inhibition; type: cell-based; conditions: Homo sapiens, BGC-823, 72 h, MTT, 72 hours incubation; read-out: GI50 BG
Description: as §1, §2, §3, §4, §5, §6, §7

[13] = system: MOLT-4 (human acute lymphoblastic leukemia cells); assay: MTT cancer cell growth inhibition; type: cell-based; conditions: Homo sapiens, MOLT-4, 72 h, MTT, 72 hours incubation; read-out: GI50 Mol
Description: as §1, §2, §3, §4, §5, §6, §7

[14] = system: HT1080 (human fibrosarcoma cells); assay: MTT cancer cell growth inhibition; type: cell-based; conditions: Homo sapiens, HT-1080, 72 h, MTT, 72 hours incubation; read-out: GI50 HT1
Description: as §1, §2, §3, §4, §5, §6, §7

[15] = system: PANC-1 (Pac-1, human pancreatic cancer cells); assay: MTT cancer cell growth inhibition; type: cell-based; conditions: Homo sapiens, PANC-1, 72 h, MTT, 72 hours incubation; read-out: GI50 PAN
Description: as §1, §2, §3, §4, §5, §6, §7

[16] = system: KBM5-T315I (human chronic myelogenous leukemia); assay: MTT cancer cell growth inhibition; type: cell-based; conditions: Homo sapiens, 72 h, MTT, 72 hours incubation, KBM5-T315I cells; read-out: GI50 KBM5-T315I
Description: as §1, §2, §3, §4, §5, §6, §7

[17] = system: Huh-7 (human hepatoma cells); assay: MTT cancer cell growth inhibition; type: cell-based; conditions: Homo sapiens, Huh-7, 72 h, MTT, 72 hours incubation, Huh-7 cells; read-out: GI50 Huh-7
Description: as §1, §2, §3, §4, §5, §6, §7

[18] = system: SGC-7901 (human gastric cancer cells); assay: MTT cancer cell growth inhibition; type: cell-based; conditions: Homo sapiens, SGC-7901, 72 h, MTT, 72 hours incubation, SGC-7901 cells; read-out: GI50 SGC-7901
Description: as §1, §2, §3, §4, §5, §6, §7

[19] = system: U937 (human leukemia cells); assay: MTT cancer cell growth inhibition; type: cell-based; conditions: Homo sapiens, U-937, 72 h, MTT, 72 hours incubation; read-out: GI50 U93
Description: as §1, §2, §3, §4, §5, §6, §7

[20] = system: A549 (human lung cancer cells); assay: MTT cancer cell growth inhibition; type: cell-based; conditions: Homo sapiens, A549, 72 h, MTT, 72 hours incubation; read-out: GI50 A54
Description: as §1, §2, §3, §4, §5, §6, §7

[21] = molecular target: T1, HDAC7 (Homo sapiens, UniProt Q8WUI4); assay: HDAC biochemical activity measurement (fluorescent substrate deacetylation);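 also: fluorogenic deacetylation assay using acetyl-lysine substrate at 20 µM, enzyme and compound incubated 30 min at 37 °C, then developer added, fluorescence read at 360/460 nm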; conditions: HDAC7; 37° C. 30 minutes
T1 sequence (Q8WUI4 1-952): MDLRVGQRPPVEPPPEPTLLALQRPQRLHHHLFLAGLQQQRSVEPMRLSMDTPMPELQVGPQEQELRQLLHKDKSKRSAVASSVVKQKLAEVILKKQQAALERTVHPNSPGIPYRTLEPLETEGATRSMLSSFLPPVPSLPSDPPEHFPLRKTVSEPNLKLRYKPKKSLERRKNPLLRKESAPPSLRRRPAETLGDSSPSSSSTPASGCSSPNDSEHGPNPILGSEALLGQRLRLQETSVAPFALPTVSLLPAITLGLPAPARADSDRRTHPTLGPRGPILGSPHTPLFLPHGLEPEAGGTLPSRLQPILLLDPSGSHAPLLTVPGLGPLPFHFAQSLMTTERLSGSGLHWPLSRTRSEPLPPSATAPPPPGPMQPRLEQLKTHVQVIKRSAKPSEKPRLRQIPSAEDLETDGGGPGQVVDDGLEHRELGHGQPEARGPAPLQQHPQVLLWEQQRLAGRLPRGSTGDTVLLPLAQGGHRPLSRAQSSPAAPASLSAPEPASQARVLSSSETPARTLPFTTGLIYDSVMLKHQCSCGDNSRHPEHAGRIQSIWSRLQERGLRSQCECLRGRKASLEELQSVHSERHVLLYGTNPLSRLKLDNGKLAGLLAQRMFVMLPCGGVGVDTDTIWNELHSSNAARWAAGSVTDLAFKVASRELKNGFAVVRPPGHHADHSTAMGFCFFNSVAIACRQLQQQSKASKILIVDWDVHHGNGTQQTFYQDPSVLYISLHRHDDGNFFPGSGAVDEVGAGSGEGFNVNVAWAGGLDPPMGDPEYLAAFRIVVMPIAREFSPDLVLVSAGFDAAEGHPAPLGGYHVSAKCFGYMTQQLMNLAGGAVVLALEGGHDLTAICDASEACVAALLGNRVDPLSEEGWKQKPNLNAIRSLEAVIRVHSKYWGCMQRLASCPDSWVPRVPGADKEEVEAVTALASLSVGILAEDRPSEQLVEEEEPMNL

Compound | GI50 [1] | GI50 [2] | GI50 [3] | GI50 [4] | GI50 [5] | GI50 [6] | GI50 [7] | GI50 [8] | GI50 [9] | GI50 [10] | GI50 [11] | GI50 [12] | GI50 [13] | GI50 [14] | GI50 [15] | GI50 [16] | GI50 [17] | GI50 [18] | GI50 [19] | GI50 [20] | other results
C/C=C1\NC(=O)c2nc(F)cc(n2)CNC(=O)C[C@@H](/C=C/CCSC(C)=O)OC(=O)[C@H](C(C)C)NC1=O [Compound 96] | 73 nM | 65 nM | 30 nM | 57 nM | 60 nM | 61 nM | 72 nM | 20 nM | 19 nM | 20 nM | 27 nM | 20 nM | 30 nM | 40 nM | 40 nM | 54 nM | 48 nM | 37 nM | 20 nM | 40 nM | IC50 HDAC7 [21]: no activity
C/C=C1\NC(=O)c2ncc(F)c(n2)CNC(=O)C[C@@H](/C=C/CCSC(C)=O)OC(=O)[C@H](C(C)C)NC1=O [Compound 97] | 42 nM | 39 nM | 20 nM | 31 nM | 90 nM | 59 nM | 93 nM | 10 nM | 29 nM | 30 nM | 31 nM | 30 nM | 20 nM | 70 nM | 70 nM | 26 nM | 13 nM | 24 nM | 30 nM | 50 nM | IC50 HDAC7 [21]: no activity
C/C=C1\NC(=O)c2ncc(F)c(n2)CNC(=O)C[C@@H](/C=C/CCSC(C)=O)OC(=O)[C@H](C)NC1=O [Compound 99] | 58 nM | 88 nM | 20 nM | 24 nM | 60 nM | 16 nM | 19 nM | 40 nM | 42 nM | 10 nM | 31 nM | 60 nM | 20 nM | 70 nM | 70 nM | 22 nM | 31 nM | 69 nM | 60 nM | 60 nM | IC50 HDAC7 [21]: no activity
C/C=C1\NC(=O)c2nc(ccc2F)CNC(=O)C[C@@H](/C=C/CCSC(C)=O)OC(=O)[C@@H](C)NC1=O [Compound 100] | 53 nM | 17 nM | 30 nM | 78 nM | 70 nM | 71 nM | 35 nM | 20 nM | 34 nM | 20 nM | 32 nM | 20 nM | 30 nM | 90 nM | 90 nM | 31 nM | 27 nM | 57 nM | 60 nM | 50 nM | IC50 HDAC7 [21]: no activity
C/C=C1\NC(=O)c2cc(F)cc(n2)CNC(=O)C[C@@H](/C=C/CCSC(C)=O)OC(=O)[C@@H](C)NC1=O [Compound 101] | 69 nM | 39 nM | 20 nM | 52 nM | 40 nM | 45 nM | 41 nM | 30 nM | 21 nM | 20 nM | 26 nM | 30 nM | 20 nM | 40 nM | 40 nM | 36 nM | 36 nM | 48 nM | 50 nM | 70 nM | IC50 HDAC7 [21]: no activity
C/C=C1\NC(=O)c2ccc(F)c(n2)CNC(=O)C[C@@H](/C=C/CCSC(C)=O)OC(=O)[C@@H](C)NC1=O [Compound 102] | 35 nM | 58 nM | 30 nM | 26 nM | 30 nM | 11 nM | 67 nM | 20 nM | 28 nM | 30 nM | 46 nM | 30 nM | 30 nM | 50 nM | 50 nM | 71 nM | 73 nM | 31 nM | 40 nM | 50 nM | IC50 HDAC7 [21]: no activity
C/C=C1\NC(=O)c2ccc(F)c(n2)CCNC(=O)C[C@@H](/C=C/CCSC(C)=O)OC(=O)[C@H](C(C)C)NC1=O [Compound 105] | 97 nM | 47 nM | 20 nM | 86 nM | 50 nM | 21 nM | 23 nM | 30 nM | 19 nM | 20 nM | 93 nM | 10 nM | 20 nM | 70 nM | 70 nM | 53 nM | 56 nM | 16 nM | 50 nM | 40 nM | IC50 HDAC7 [21]: no activity
